Measured values published in ChEMBL document CHEMBL1123443, “Synthesis and evaluation of 1-(arylsulfonyl)-2-[(methoxycarbonyl)sulfenyl]-1-methylhydrazines++ + as antineoplastic agents” (1986).

Key:
Format in all cases: functional, Mus musculus
B16 [1] = experiment: Effect of compound on the body weight of mice bearing the B16 melanoma at a daily dose of 12.5 mg/kg
B16 [2] = experiment: Effect of compound on the survival time of mice bearing the B16 melanoma at a daily dose (mg/kg) of 50
B16 [3] = experiment: Effect of compound on the survival time of mice bearing the B16 melanoma at a daily dose of 12.5 mg/kg
B16 [4] = experiment: Effect of compound on the survival time of mice bearing the B16 melanoma at a daily dose of 25 mg/kg
B16 [5] = experiment: Effect of compound on the body weight of mice bearing the B16 melanoma at a daily dose of 25 mg/kg
B16 [6] = experiment: Effect of compound on the body weight of mice bearing the B16 melanoma at a daily dose of 50 mg/kg
L1210 [7] = experiment: Effect of compound on the survival time of mice bearing the L1210 leukemia at a daily dose (mg/kg) of 12.5-50
L1210 [8] = experiment: Effect of compound on the body weight of mice bearing the L1210 leukemia at a daily dose of 12.5-50 mg/kg
B16 [9] = experiment: Effect of compound on the survival time of mice bearing the B16 melanoma at a daily dose of 50 mg/kg
L1210 [10] = experiment: Effect of compound on the survival time of mice bearing the L1210 leukemia at a daily dose of 12.5-50 mg/kg
B16 [11] = experiment: Effect of compound on the body weight of mice bearing the B16 melanoma at a daily dose of 100 mg/kg
B16 [12] = experiment: Effect of compound on the survival time of mice bearing the B16 melanoma at a daily dose (mg/kg) of,50
B16 [13] = experiment: Effect of compound on the survival time of mice bearing the B16 melanoma at a daily dose of 100 mg/kg
B16 [14] = experiment: Effect of compound on the survival time of mice bearing the B16 melanoma at a daily dose of 150 mg/kg
B16 [15] = experiment: Effect of compound on the body weight of mice bearing the B16 melanoma at a daily dose of 150 mg/kg

Compound | Change in weight (B16 [1]) [%] | T/C (B16 [2]) [%] | T/C (B16 [3]) [%] | T/C (B16 [4]) [%] | Change in weight (B16 [5]) [%] | Change in weight (B16 [6]) [%] | T/C (L1210 [7]) [%] | Change in weight (L1210 [8]) [%] | T/C (B16 [9]) [%] | T/C (L1210 [10]) [%] | Change in weight (B16 [11]) [%] | T/C (B16 [12]) [%] | T/C (B16 [13]) [%] | T/C (B16 [14]) [%] | Change in weight (B16 [15]) [%]
COC(=O)SNN(C)S(=O)(=O)c1ccc(OC)cc1 | -0.2 | 177 | 148 | 160 | -6.4 | -18.7 | 149 | -6.7 |  |  |  |  |  |  | 
COC(=O)SNN(C)S(=O)(=O)c1ccc2ccccc2c1 | -0.2 | 163 | 123 | 140 | 1.4 | -4.8 |  |  |  |  |  |  |  |  | 
COC(=O)SNN(C)S(=O)(=O)c1ccc(Br)cc1 | -2 | 160 | 144 | 146 | -5.5 | -11.4 | 122 | -0.2 |  |  |  |  |  |  | 
COC(=O)SNN(C)S(=O)(=O)c1ccccc1 | -5.2 |  | 169 | 183 | -13 | -33.4 |  | -10.9 | 49 | 113 |  |  |  |  | 
COC(=O)SNN(C)S(=O)(=O)c1ccc(C)cc1 | 0.7 | 232 | 182 | 199 | -3.3 | -17.7 | 118 | -4.2 |  |  |  |  |  |  | 
COC(=O)SNNS(=O)(=O)c1ccc(C)cc1 | 1.6 | 98 | 100 | 113 | 3.7 | -0.4 |  |  |  |  |  |  |  |  | 
COC(=O)SNN(C)S(=O)(=O)Cc1ccccc1 | -2.5 | 59 | 152 | 157 | -14.8 | -27.4 | 100 | -8 |  |  |  |  |  |  | 
CN(C)/N=N/c1[nH]cnc1C(N)=O [DACARBAZINE] | -2.3 |  |  |  |  |  |  |  |  |  | -4.4 | 135 | 161 | 177 | -5.7
